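Five compound concentrations were applied to cells in 96-well plates for 48 hours; endpoints were derived by simple linear interpolation of the resulting dose-response curve. The concentration for 50% growth inhibition is given as GI50. At the TGI there is no net growth.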 Where a SMILES comes first, the peptide text is derived from it. The star is where a group is joined. Fmoc = O=C(OCC1c2ccccc2-c2ccccc21)*; Boc = CC(C)(C)OC(=O)*
Assays:
Test in all cases: growth of human tumour cells (NCI), 48 h
[1] = tested on: MDA-N
[2] = tested on: TK-10 renal
[3] = tested on: HCT-116 colon
[4] = tested on: HCC-2998 colon
[5] = tested on: SK-MEL-5 melanoma
[6] = tested on: HOP-62 NSCLC
[7] = tested on: PC-3 prostate
[8] = tested on: NCI-H522 lung
[9] = tested on: HL-60(TB) leukemia
[10] = tested on: NCI-H460 lung
[11] = tested on: SK-MEL-28 melanoma
[12] = tested on: U251 CNS

O=C(CCCl)NNC1=NCCCN1
TGI [1]: > 100 µM
TGI [2]: > 100 µM
TGI [3]: > 100 µM
TGI [4]: > 100 µM
TGI [5]: > 100 µM
TGI [6]: > 100 µM
TGI [7]: > 100 µM
TGI [8]: > 100 µM
TGI [9]: > 100 µM
TGI [10]: > 100 µM
TGI [11]: > 100 µM
TGI [12]: > 100 µM

CN(c1cn(C2CC[C@@H](CO)O2)c(=O)[nH]c1=O)C1CCCCC1 (some centres undefined)
TGI [1]: > 100 µM
TGI [2]: > 100 µM
TGI [3]: > 100 µM
TGI [4]: > 100 µM
TGI [5]: > 100 µM
TGI [6]: > 100 µM
TGI [7]: > 100 µM
TGI [8]: > 100 µM
TGI [9]: > 100 µM
TGI [10]: > 100 µM
TGI [11]: > 100 µM
TGI [12]: > 100 µM

CC(C)(C)c1cc2c(O)c(c1)Cc1cc(C(C)(C)C)cc(c1O)Cc1cc(C(C)(C)C)cc(c1O)Cc1cc(C(C)(C)C)cc(c1O)Cc1cc(C(C)(C)C)cc(c1O)Cc1cc(C(C)(C)C)cc(c1O)Cc1cc(C(C)(C)C)cc(c1O)Cc1cc(C(C)(C)C)cc(c1O)C2
TGI [1]: > 50 µM
TGI [2]: > 50 µM
TGI [3]: > 50 µM
TGI [4]: > 50 µM
TGI [5]: > 50 µM
TGI [6]: > 50 µM
TGI [7]: > 50 µM
TGI [8]: > 50 µM
TGI [9]: > 50 µM
TGI [10]: > 50 µM
TGI [11]: > 50 µM
TGI [12]: > 50 µM

CC1C(OC2O[C@@H]3O[C@@]4(C)CC[C@H]5[C@H](C)CC[C@@H](C2C)[C@@]35O4)O[C@@H]2O[C@@]3(C)CC[C@H]4[C@H](C)CC[C@@H]1[C@@]24O3 (some centres undefined)
TGI [1]: > 50 µM
TGI [2]: > 50 µM
TGI [3]: > 50 µM
TGI [4]: > 50 µM
TGI [5]: > 50 µM
TGI [6]: > 50 µM
TGI [7]: > 50 µM
TGI [8]: > 50 µM
TGI [9]: > 50 µM
TGI [10]: > 50 µM
TGI [11]: > 50 µM
TGI [12]: > 50 µM

CC1CCC2(CC1)NC1=C(CC(C)CC1)C1=C2CC(C)CC1 (centres undefined)
TGI [1]: > 100 µM
TGI [2]: 89.2 µM
TGI [3]: 28 µM
TGI [4]: 45.1 µM
TGI [5]: 24.4 µM
TGI [7]: 47.9 µM
TGI [8]: 40 µM
TGI [9]: 35.9 µM
TGI [10]: 75.7 µM
TGI [11]: 35 µM
TGI [12]: 33.5 µM

c1ccc2c(c1)NC1(N3CCCCC3)CCCCC21 (centres undefined)
TGI [1]: > 100 µM
TGI [2]: > 100 µM
TGI [3]: > 100 µM
TGI [4]: > 100 µM
TGI [5]: > 100 µM
TGI [6]: > 100 µM
TGI [7]: > 100 µM
TGI [8]: > 100 µM
TGI [9]: 82.2 µM
TGI [10]: > 100 µM
TGI [11]: > 100 µM
TGI [12]: > 100 µM

COC(=O)CCC(C)C1CCC2C3C(C[C@H](OC(C)=O)[C@]12C)[C@@]1(C)CCC2(C[C@H]1C[C@H]3OC(C)=O)OOC1(CC[C@]3(C)C4C[C@H](OC(C)=O)[C@]5(C)C(C(C)CCC(=O)OC)CCC5C4[C@H](OC(C)=O)C[C@@H]3C1)OO2 (some centres undefined)
TGI [1]: > 100 µM
TGI [2]: > 100 µM
TGI [3]: > 100 µM
TGI [4]: > 100 µM
TGI [5]: > 100 µM
TGI [6]: > 100 µM
TGI [7]: > 100 µM
TGI [8]: > 100 µM
TGI [9]: > 100 µM
TGI [10]: > 100 µM
TGI [11]: > 100 µM
TGI [12]: > 100 µM

COC(=O)[C@H](CC(C)C)Nc1c(O)c2c(c(O)c1Cl)C(=O)C=CC2=O
TGI [1]: > 10 µM
TGI [2]: > 10 µM
TGI [3]: 5.35 µM
TGI [4]: > 10 µM
TGI [5]: > 10 µM
TGI [6]: > 10 µM
TGI [7]: > 10 µM
TGI [8]: > 10 µM
TGI [9]: > 10 µM
TGI [10]: > 10 µM
TGI [11]: > 10 µM
TGI [12]: > 10 µM

O=c1[nH]c(=O)n(C2OC(CO)C(O)C2O)cc1Oc1ccccc1 (centres undefined)
TGI [1]: > 100 µM
TGI [2]: > 100 µM
TGI [3]: > 100 µM
TGI [4]: > 100 µM
TGI [5]: > 100 µM
TGI [6]: > 100 µM
TGI [7]: > 100 µM
TGI [8]: > 100 µM
TGI [9]: > 100 µM
TGI [10]: > 100 µM
TGI [11]: > 100 µM
TGI [12]: > 100 µM

O=C(O)CCCc1ccc2ccccc2c1
TGI [1]: > 100 µM
TGI [2]: > 100 µM
TGI [3]: > 100 µM
TGI [4]: > 100 µM
TGI [5]: > 100 µM
TGI [6]: > 100 µM
TGI [7]: > 100 µM
TGI [8]: > 100 µM
TGI [9]: > 100 µM
TGI [10]: > 100 µM
TGI [11]: > 100 µM
TGI [12]: > 100 µM

CC(C)(CCCCC(C)(C)[N+](C)(C)C)[N+](C)(C)C
TGI [1]: > 100 µM
TGI [2]: > 100 µM
TGI [3]: > 100 µM
TGI [4]: > 100 µM
TGI [5]: > 100 µM
TGI [6]: > 100 µM
TGI [7]: > 100 µM
TGI [8]: > 100 µM
TGI [9]: > 100 µM
TGI [10]: > 100 µM
TGI [11]: > 100 µM
TGI [12]: > 100 µM

CCOC(=O)C(=O)/C(=C/N1C(=O)CC(=O)NC1=S)C(=O)OCC
TGI [1]: > 100 µM
GI50 [2]: > 100 µM
TGI [2]: > 100 µM
TGI [3]: > 100 µM
TGI [4]: > 100 µM
TGI [5]: > 100 µM
TGI [6]: > 100 µM
TGI [7]: > 100 µM
TGI [8]: > 100 µM
TGI [9]: > 100 µM
TGI [10]: > 100 µM
TGI [11]: > 100 µM
TGI [12]: > 100 µM

OCCOc1ccccc2cccc1-2
TGI [1]: > 100 µM
TGI [2]: > 100 µM
TGI [3]: > 100 µM
TGI [4]: > 100 µM
TGI [5]: > 100 µM
TGI [6]: > 100 µM
TGI [7]: > 100 µM
TGI [8]: > 100 µM
TGI [9]: > 100 µM
TGI [10]: > 100 µM
TGI [11]: > 100 µM
TGI [12]: > 100 µM

O=C1C=C(OCCCCl)C(=O)c2c(O)ccc(O)c21
TGI [1]: 0.349 µM
TGI [2]: 3.46 µM
TGI [3]: 1.28 µM
TGI [4]: 3.37 µM
TGI [5]: 0.306 µM
TGI [6]: 2.75 µM
TGI [7]: 3.98 µM
TGI [8]: 4.26 µM
TGI [9]: 3.03 µM
TGI [10]: 3.1 µM
TGI [11]: 2.08 µM
TGI [12]: 3.56 µM

CC(C)(C)OC(=O)NCCCCC(NC(=O)C(Cc1c[nH]c2ccccc12)NC(=O)OCC1c2ccccc2-c2ccccc21)C(=O)N1CCCC1C(=O)NCC(N)=O (centres undefined) (Fmoc-WK(Boc)PG-NH2; configuration not given here)
TGI [1]: > 100 µM
TGI [2]: > 100 µM
TGI [3]: > 100 µM
TGI [4]: > 100 µM
TGI [5]: > 100 µM
TGI [6]: > 100 µM
TGI [7]: > 100 µM
TGI [8]: > 100 µM
TGI [9]: > 100 µM
TGI [10]: > 100 µM
TGI [11]: > 100 µM
TGI [12]: > 100 µM

COC(=O)[C@H](Cc1ccc(OC(C)(C)C)cc1)N[C@H](C)C(=O)N[C@@H](Cc1ccccc1)C(=O)OCc1ccccc1
TGI [1]: > 100 µM
TGI [2]: > 100 µM
TGI [3]: > 100 µM
TGI [4]: > 100 µM
TGI [5]: > 100 µM
TGI [6]: > 100 µM
TGI [7]: > 100 µM
TGI [8]: > 100 µM
TGI [9]: > 100 µM
TGI [10]: > 100 µM
TGI [11]: > 100 µM
TGI [12]: > 100 µM

COc1cc2c(cc1OCCCCOc1cc3c(cc1OC)C(=O)N1CCC[C@H]1C(=O)N3)N=C[C@@H]1CCCN1C2=O
TGI [1]: 19.6 µM
TGI [2]: 27.4 µM
TGI [3]: > 100 µM
TGI [4]: 26.3 µM
TGI [5]: 14.8 µM
TGI [6]: 44.5 µM
TGI [7]: 19.4 µM
TGI [8]: 3.24 µM
TGI [9]: 37.3 µM
TGI [10]: 43.9 µM
TGI [11]: 30.8 µM
TGI [12]: 14 µM

— PubChem BioAssay (NCI)
